According to the NIST ThermoML archive (doi:10.1021/acs.jced.8b00785):
± gives the expanded uncertainty stated by the source.

How the values were obtained:
[1] = Crystal; DSC
[2] = Molar enthalpy of transition or fusion; conditions: Crystal; DSC

- Triple point temperature [1]: 446.04 ± 0.87 K
- Molar enthalpy of transition or fusion [2]: 6.72 ± 0.359 kcal/mol
SMILES: NNC(=O)c1ccncc1 [isonicotinic acid hydrazide]
